Test results as given in paper PMC2709467, “Synthesis of Novel 3-Aryl-N-Methyl-1,2,5,6-Tetrahydropyridine Derivatives by Suzuki coupling: As Acetyl Cholinesterase Inhibitors” (The Open Medicinal Chemistry Journal, 2007).
Like-named read-outs stand apart in the source and are kept apart here.

Columns and labels:
Electric eel AChE = biological target: T1, Electric eel AChE (Electrophorus electricus, UniProt O42275); experiment: Ellman assay, […] nm; assay type: biochemical
T1 construct: native commercial enzyme from Sigma, no further details
T1 sequence (O42275 24-633): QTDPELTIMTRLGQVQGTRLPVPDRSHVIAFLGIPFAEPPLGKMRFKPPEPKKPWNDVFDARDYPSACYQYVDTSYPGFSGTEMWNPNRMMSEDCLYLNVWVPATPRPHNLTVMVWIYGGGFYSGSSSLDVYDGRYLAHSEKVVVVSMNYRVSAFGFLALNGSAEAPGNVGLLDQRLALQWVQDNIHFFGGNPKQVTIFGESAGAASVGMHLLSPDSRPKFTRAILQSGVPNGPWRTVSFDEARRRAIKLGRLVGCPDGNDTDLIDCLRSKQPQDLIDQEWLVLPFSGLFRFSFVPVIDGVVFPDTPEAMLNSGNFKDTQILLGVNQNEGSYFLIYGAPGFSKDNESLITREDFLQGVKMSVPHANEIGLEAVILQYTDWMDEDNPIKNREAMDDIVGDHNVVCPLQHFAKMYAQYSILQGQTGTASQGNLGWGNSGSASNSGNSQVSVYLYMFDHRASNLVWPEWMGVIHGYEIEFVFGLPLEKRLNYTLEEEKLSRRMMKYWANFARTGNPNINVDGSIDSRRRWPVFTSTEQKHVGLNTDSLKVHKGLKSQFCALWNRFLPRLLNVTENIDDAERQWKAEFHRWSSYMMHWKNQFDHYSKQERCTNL

Human Serum AChE = system: T2, Human Serum AChE; experiment: Ellman assay, […] nm; assay type: biochemical; details: acetylthiocholine iodide substrate, phosphate buffer pH 8.0, 37 °C, 10 min preincubation
T2 construct: crude supernatant of citrated fresh blood (plasma), not purified

[1] = acetylthiocholine iodide substrate, phosphate buffer pH 8.0, 37 °C, 10 min preincubation; read-out: Electric eel AChE, IC50 nM

| SMILES | IC50 (Electric eel AChE; [1]) | IC50 (Human Serum AChE) | IC50 (Electric eel AChE; read-out: Electric eel AChE, IC50 nM; acetylthiocholine iodide substrate, phosphate buffer pH 8.0, 37 °C, 10 min preincubation) |
| --- | --- | --- | --- |
| CN1CCC=C(c2ccc(C(F)(F)F)cc2)C1 [5a, 3-[4-(trifluoromethyl)phenyl]-1,2,5,6-tetrahydro-1-methylpyridine] | 49.5 nM | 52 nM |  |
| CN1CCC=C(c2ccc(C#N)cc2)C1 [5b, 3-(4-cyanophenyl)-1,2,5,6-tetrahydro-1-methylpyridine] | 64 nM | 68 nM |  |
| CN1CCC=C(c2ccc(Cl)cc2)C1 [5d, 3-(4-chlorophenyl)-1,2,5,6-tetrahydro-1-methylpyridine] | 806 nM | 784 nM |  |
| COc1ccc(C2=CCCN(C)C2)cc1 [5e, 3-(4-methoxyphenyl)-1,2,5,6-tetrahydro-1-methylpyridine] |  | 2880 nM |  |
| CN1CCC=C(c2c(Cl)cccc2Cl)C1 [5f, 3-(2,6-dichlorophenyl)-1,2,5,6-tetrahydro-1-methylpyridine] | 678 nM | 729 nM |  |
| CN1CCC=C(c2ccc(Oc3ccccc3)cc2)C1 [5g, 3-(4-phenoxyphenyl)-1,2,5,6-tetrahydro-1-methylpyridine] | 1230 nM | 1350 nM |  |
| CN1CCC=C(c2ccc(-c3ccccc3)c(F)c2)C1 [5h, 3-(2-fluoro-biphenyl-4-yl)-1-methyl-1,2,5,6-tetrahydropyridine] | 118 nM | 116 nM |  |
| CCOc1cccc(C2=CCCN(C)C2)c1 [5j, 3-(3-ethoxyphenyl)-1,2,5,6-tetrahydro-1-methylpyridine] | 1230 nM | 1220 nM |  |
| CN1CCC=C(c2cccc(Cl)c2F)C1 [5k, 3-(3-chloro-2-fluoro-phenyl)-1-methyl-1,2,5,6-tetrahydropyridine] | 182 nM | 170 nM |  |
| CN(C)C(=O)Oc1cccc([N+](C)(C)C)c1 [Neostigmine, reference compound] |  | 39.2 nM | 36.5 nM |
